# Literature values as cited in US5965423A, “Human lysophospholipase” (Incyte Pharmaceuticals, Inc., priority 1998, dated 1999).
# Molecular target: T1, monomeric, 24 kD lysophospholipase (LPL) from rat liver (Rattus norvegicus, UniProt P70470)
# T1 construct: isolated a monomeric, 24 kD LPL from rat liver; host or cells: rat liver (tissue-purified enzyme, Sugimoto et al. 1996)
# Settings: substrate 1-palmitoyl-glycero-3-phosphocholine; substrate dependence curve sigmoidal
# T1 sequence (P70470 whole entry): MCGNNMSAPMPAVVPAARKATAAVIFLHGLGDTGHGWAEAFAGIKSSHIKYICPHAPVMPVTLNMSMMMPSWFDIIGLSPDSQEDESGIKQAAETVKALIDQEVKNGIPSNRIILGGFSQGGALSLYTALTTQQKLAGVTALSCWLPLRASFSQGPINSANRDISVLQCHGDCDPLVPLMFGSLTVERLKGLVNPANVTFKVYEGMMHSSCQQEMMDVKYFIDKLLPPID
smiles,measurement,value
CCCCCCCCCCCCCCCC(=O)OCC(O)COP(=O)([O-])OCC[N+](C)(C)C (centres unmarked) [1-palmitoyl-glycero-3-phosphocholine],Km,170 µM
same,Vmax,1.55 µM/min/mg
